By IC50 is commonly meant the concentration that inhibits the measured activity by half. In general, solubility refers to the dissolved amount per volume that the medium holds. As usually defined, the EC50 is the concentration that produces a half-maximal response.

Values after ≈ are worked out from the molar mass of the structure shown. Numbered stars: 1 amine (or outer) side, 2 acyl side, 3 side chain; on linkers, the order of the positions; unused ones are H or OH. Side chains are listed from the residue outwards. Peptide text beside a SMILES is read from it. * marks the point of attachment. C20 diacid = O=C(O)CCCCCCCCCCCCCCCCCCC(=O)*; C18 diacid = O=C(O)CCCCCCCCCCCCCCCCC(=O)*; γGlu = O=C(O)[C@H](CCC(=O)[*:2])N[*:1]

The source of these data is US9593149B2, “Amylin and calcitonin receptor agonist” (Novo Nordisk A/S, priority 2014, dated 2017).

One data set deals with T1, rat calcitonin receptor (Rattus norvegicus, UniProt P32214).
T1 construct: expressed in transfected cells; host or cells: BHK tk'ts 13 (transient, FuGENE 6)
T1 sequence (P32214 25-479 isoform P32214-2 limits assumed): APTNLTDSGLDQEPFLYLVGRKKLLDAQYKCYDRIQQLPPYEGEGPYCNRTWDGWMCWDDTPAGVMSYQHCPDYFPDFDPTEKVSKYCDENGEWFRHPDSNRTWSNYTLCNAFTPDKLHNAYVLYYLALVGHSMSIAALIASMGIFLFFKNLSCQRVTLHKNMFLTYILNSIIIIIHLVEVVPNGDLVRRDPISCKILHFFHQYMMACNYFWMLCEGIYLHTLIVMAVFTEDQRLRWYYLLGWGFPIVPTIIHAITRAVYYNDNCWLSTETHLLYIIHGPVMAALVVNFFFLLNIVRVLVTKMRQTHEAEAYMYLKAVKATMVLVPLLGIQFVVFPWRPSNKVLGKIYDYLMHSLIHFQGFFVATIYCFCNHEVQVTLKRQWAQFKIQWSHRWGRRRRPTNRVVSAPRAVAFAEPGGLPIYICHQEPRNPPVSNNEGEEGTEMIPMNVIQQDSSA
Nature of the data set: Assay (VIII) binding to the rat calcitonin receptor. As to conditions: membranes; read-out: rCT-R binding IC50. In a few lines:
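Affinity given as IC50 from a one-site competition fit of bound radioactivity, counted by scintillation after cold HBSS washes and NaOH/SDS lysis. Membranes came from BHK tk'ts 13 cells transiently expressing the rat receptor; other conditions followed the human calcitonin receptor protocol.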

Data set [1] in a line: Assay (IV) determination of solubility. It counts as physicochemical. On the procedure:
Assay (IV)—Determination of Solubility
The mimylin peptide was dissolved in water at ˜500 nmol/ml and mixed 1:1 with a series of buffers (100 mM glycylglycine pH 3.0, 100 mM glycylglycine pH 4.0, 100 mM glycylglycine pH 5.0, 100 mM bistrispropane pH 6.0, 100 mM bistrispropane pH 6.5, 100 mM bistrispropane pH 7.0, 100 mM bistrispropane pH 7.5, 100 mM bistrispropane pH 8.0).

In data set [2] the target is T2, human amylin 3(a) receptor (human calcitonin receptor + RAMP-3), BHK570 cells (Homo sapiens, UniProt O60896+P30988).
T2 construct: host or cells: BHK570
Nature of the data set: Assay (II)b functional CRE-luciferase assay without albumin, human amylin receptor. The format is cell-based. To be noted: Tested without HSA; read-out: hAmylin-R funct. EC50. An outline of the steps: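 Agonism measured as CRE-driven luciferase luminescence after 3 h sample exposure at 37 °C, without albumin (0.1% ovalbumin, Hepes pH 7.4 medium). Reporter cells: BHK570 carrying human calcitonin receptor, co-transfected with RAMP-3 to form the amylin 3(a) receptor.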

Data set [3] concerns the target T3, human calcitonin (a) receptor, BHK570 cells (Homo sapiens, UniProt P30988).
T3 construct: host or cells: BHK570
T3 sequence (P30988 25-474): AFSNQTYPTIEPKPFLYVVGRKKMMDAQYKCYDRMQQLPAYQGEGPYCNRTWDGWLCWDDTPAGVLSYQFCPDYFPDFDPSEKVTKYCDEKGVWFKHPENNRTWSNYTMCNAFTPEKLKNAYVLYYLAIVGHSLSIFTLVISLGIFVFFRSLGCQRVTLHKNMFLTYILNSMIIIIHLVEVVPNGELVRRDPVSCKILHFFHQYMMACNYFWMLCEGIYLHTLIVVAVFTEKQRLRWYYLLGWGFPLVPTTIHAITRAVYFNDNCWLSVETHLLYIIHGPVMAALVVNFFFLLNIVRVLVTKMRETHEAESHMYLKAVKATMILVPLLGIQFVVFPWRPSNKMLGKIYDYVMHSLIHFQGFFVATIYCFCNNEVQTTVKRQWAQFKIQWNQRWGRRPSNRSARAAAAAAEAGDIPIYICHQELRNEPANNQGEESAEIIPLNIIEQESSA
Nature of the data set: Assay (II)a functional CRE-luciferase assay with albumin, human calcitonin receptor. To be noted: Tested with HSA; read-out: hCTR funct. EC50. It counts as cell-based. The text has this:
(§1) Assay(II)a—Human Calcitonin and Amylin Receptor Assay
(§2) 1. Luciferase Assay Outline
(§3) Activation of calcitonin and amylin (co-expression of calcitonin receptor and receptor activity modifying proteins (RAMP)) receptors lead to increased intracellular concentrations of cAMP. Consequently, transcription is activated by promoters containing multiple copies of the cAMP response element (CRE). It is thus possible to measure amylin activity by the use of a CRE luciferase reporter gene introduced into BHK cells also expressing calcitonin or amylin receptors.
(§4) 2. Construction of Calcitonin (a)—and Amylin 3(a)—Receptor/CRE-Luc Cell Line.
(§5) A BHK570 cell line was stably transfected with the human calcitonin receptor and a CRE-responsive luciferase reporter gene. The cell line was further transfected with RAMP-3, using standard methods. This turns the calcitonin receptor into an amylin 3(a) receptor. Methotrexate, Neomycin, and Hygromycin are selection markers for luciferase, the calcitonin receptor, and RAMP-3, respectively.
(§6) To perform activity assays, BHK calcitonin (a) receptor- or amylin 3(a)-receptor/CRE-luc cells were seeded in white 96 well culture plates at a density of about 20.000 cells/well. […] After incubation overnight at 37° C. and 5% CO2, the growth medium was replaced by 50 μl/well assay medium (DMEM (without phenol red), Glutamax™, 10% FBS, and 10 mM Hepes, pH 7.4). Further, 50 μl/well of standard or sample in assay buffer were added.
(§7) After 3 hours incubation at 37° C. and 5% CO2, the assay medium with standard or sample were removed and replaced by 100 μl/well PBS. Further, 100 μl/well LucLite™ was added. The plates were sealed and incubated at room temperature for 30 minutes. Finally, luminescence was tested on a TopCounter (Packard) in SPC (single photon counting) mode.

In data set [4] the target is T2, human amylin 3(a) receptor (human calcitonin receptor + RAMP-3), BHK570 cells. Description: Assay (II)a functional CRE-luciferase assay with albumin, human amylin receptor. The format is cell-based. As to conditions: Tested with HSA; read-out: hAmylin-R funct. EC50.
Source text: as §1, §2, §3, §4, §5, §6, §7

Data set [5] has as its target T3, human calcitonin (a) receptor, BHK570 cells. Nature of the data set: Assay (II)b functional CRE-luciferase assay without albumin, human calcitonin receptor. The format is cell-based. As to conditions: Tested without HSA; read-out: hCTR funct. EC50. An outline of the steps:
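BHK570 cells stably expressing human calcitonin receptor with CRE-luciferase reporter, plus RAMP-3 for the amylin 3(a) line. Cells stimulated 3 hours at 37 °C in albumin-free assay medium (0.1% ovalbumin, 10 mM Hepes pH 7.4); cAMP-driven luciferase read by luminescence.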

For data set [6], the target named is T4, human amylin receptor (human calcitonin receptor + human RAMP3), BHK tk'ts 13 cells (Homo sapiens, UniProt O60896+P30988).
T4 construct: expressed in transfected cells; host or cells: BHK tk'ts 13
Description: Assay (Va) binding to the human amylin receptor (whole cell). As to conditions: read-out: hAmylin-R binding IC50. How it is done:
The day before the assay the cells were Seeded into Poly-D-Lysin coated 384W Opaque White, BD BioCoat plates (10000 cells/well) and Incubated overnight at 37° C., 5% CO2, 95% humidity.

T2 sequence (O60896 24-148, one chain of several): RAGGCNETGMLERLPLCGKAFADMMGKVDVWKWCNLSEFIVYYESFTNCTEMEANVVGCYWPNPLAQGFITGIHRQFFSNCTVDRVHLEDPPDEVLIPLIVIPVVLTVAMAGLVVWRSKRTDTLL
T4 sequence (O60896 24-148, one chain of several): as above

On to `CC(C)C[C@H](NC(=O)[C@H](C)NC(=O)[C@H](C)NC(=O)[C@@H](NC(=O)[C@H](CO)NC(=O)[C@H](CC(C)C)NC(=O)[C@H](CCCCNC(=O)CC[C@H](NC(=O)CCCCCCCCCCCCCCCCCCC(=O)O)C(=O)O)NC(=O)[C@H](CO)NC(=O)[C@H](C)N)[C@@H](C)O)C(=O)NCC(=O)N[C@@H](CCCNC(=N)N)C(=O)N[C@@H](CC(C)C)C(=O)N[C@@H](CO)C(=O)N[C@@H](C)C(=O)N[C@@H](CCC(=O)O)C(=O)N[C@@H](CC(C)C)C(=O)N[C@@H](Cc1c[nH]cn1)C(=O)N[C@@H](CCC(=O)O)C(=O)N[C@@H](CC(C)C)C(=O)N[C@@H](C)C(=O)N[C@H](C(=O)N[C@@H](CC(C)C)C(=O)N1CCC[C@H]1C(=O)N[C@@H](CCCNC(=N)N)C(=O)N[C@H](C(=O)N[C@@H](CCC(=O)O)C(=O)N[C@H](C(=O)NCC(=O)N[C@@H](CO)C(=O)NCC(=O)N[C@@H](CO)C(=O)N1CCC[C@H]1C(N)=O)[C@@H](C)O)[C@@H](C)O)[C@@H](C)O` [compound 52, [des1, 4K(C20 diacid-gGlu), 30S, 31G]mimylin] (H-ASK([γGlu-C20 diacid])LSTAALGRLSAELHELATLPRTETGSGSP-NH2; N-terminus assumed), for which the IC50 on rat calcitonin receptor amounted to 0.114 nM. Further, the solubility at 18 h is ≥ 200 µM in data set [1] (bistrispropane buffer, pH 6.5); ≥ 200 µM in data set [1] (bistrispropane buffer, pH 7.5); ≥ 200 µM in data set [1] (bistrispropane buffer, pH 6.0); ≥ 200 µM in data set [1] (bistrispropane buffer, pH 7.0); ≥ 200 µM in data set [1] (bistrispropane buffer, pH 8.0); ≥ 200 µM in data set [1] (glycylglycine buffer, pH 3.0). Also, the solubility at 18 h was ≥ 200 µM in data set [1] (glycylglycine buffer, pH 4.0) and ≥ 200 µM in data set [1] (glycylglycine buffer, pH 5.0). In addition, the EC50 amounted to 0.039 nM in data set [2], 0.03 nM in data set [3], 0.074 nM in data set [4] and 0.034 nM in data set [5].
In the case of `CC(C)C[C@H](NC(=O)[C@H](CCC(=O)O)NC(=O)[C@H](Cc1c[nH]cn1)NC(=O)[C@H](CC(C)C)NC(=O)[C@H](CCC(=O)O)NC(=O)[C@H](C)NC(=O)[C@H](CO)NC(=O)[C@H](CC(C)C)NC(=O)[C@H](CCCNC(=N)N)NC(=O)CNC(=O)[C@H](CC(C)C)NC(=O)[C@@H](NC(=O)[C@H](C)NC(=O)[C@@H](NC(=O)[C@@H](NC(=O)[C@H](CC(C)C)NC(=O)[C@H](CCC(=O)O)NC(=O)[C@H](CO)NC(=O)[C@H](C)NC(=O)CC[C@H](NC(=O)CCCCCCCCCCCCCCCCC(=O)O)C(=O)O)[C@@H](C)O)[C@@H](C)O)C(C)C)C(=O)N[C@@H](C)C(=O)N[C@H](C(=O)N[C@@H](CC(C)C)C(=O)N1CCC[C@H]1C(=O)N[C@@H](CCCNC(=N)N)C(=O)N[C@H](C(=O)N[C@@H](CCC(=O)O)C(=O)N[C@H](C(=O)NCC(=O)N[C@@H](CO)C(=O)NCC(=O)N[C@@H](CO)C(=O)N1CCC[C@H]1C(N)=O)[C@@H](C)O)[C@@H](C)O)[C@@H](C)O` [compound 85, [N-terminal(C18 diacid-gGlu), des1, 6T, 9V, 30S, 31G]mimylin] ({C18 diacid-γGlu}-ASELTTAVLGRLSAELHELATLPRTETGSGSP-NH2), the 50% inhibitory concentration (IC50) in data set [6] stood at 0.653 nM. Besides, the solubility at 18 h in data set [1] (bistrispropane buffer, pH 6.5) is ≥ 200 µM; in data set [1] (bistrispropane buffer, pH 7.5) it was ≥ 200 µM; in data set [1] (bistrispropane buffer, pH 6.0), ≥ 200 µM; in data set [1] (bistrispropane buffer, pH 7.0) it was ≥ 200 µM; in data set [1] (bistrispropane buffer, pH 8.0) it was ≥ 200 µM; in data set [1] (glycylglycine buffer, pH 3.0), ≥ 200 µM. Also, the solubility at 18 h in data set [1] (glycylglycine buffer, pH 4.0) is ≥ 200 µM; in data set [1] (glycylglycine buffer, pH 5.0), ≥ 200 µM. Moreover, the EC50 in data set [2] came to 0.033 nM; in data set [3] it was 0.009 nM; in data set [4], 0.019 nM; in data set [5] it was 0.028 nM.
Turning to `CC(C)C[C@H](NC(=O)CNC(=O)[C@H](CO)NC(=O)[C@H](C)NC(=O)CCCCCCCCCCCCCCCCCCC(=O)O)C(=O)N[C@@H](CO)C(=O)N[C@H](C(=O)N[C@@H](C)C(=O)N[C@@H](C)C(=O)N[C@@H](CC(C)C)C(=O)NCC(=O)N[C@@H](CCCNC(=N)N)C(=O)N[C@@H](CC(C)C)C(=O)N[C@@H](CO)C(=O)N[C@@H](CCC(N)=O)C(=O)N[C@@H](CCC(=O)O)C(=O)N[C@@H](CC(C)C)C(=O)N[C@@H](Cc1c[nH]cn1)C(=O)N[C@@H](CCC(=O)O)C(=O)N[C@@H](CC(C)C)C(=O)N[C@@H](CCC(N)=O)C(=O)N[C@H](C(=O)N[C@@H](Cc1ccc(O)cc1)C(=O)N1CCC[C@H]1C(=O)N[C@@H](CCCNC(=N)N)C(=O)N[C@H](C(=O)N[C@@H](CCC(=O)O)C(=O)N[C@H](C(=O)NCC(=O)N[C@@H](CO)C(=O)NCC(=O)N[C@H](C(=O)N[C@@H](Cc1ccc(O)cc1)C(N)=O)[C@@H](C)O)[C@@H](C)O)[C@@H](C)O)[C@@H](C)O)[C@@H](C)O` [compound 111, [N-terminal(C20 diacid), des1, 4G, 15Q, 21Q, 23Y, 30S, 31G, 32T, 33Y]mimylin] ({C20 diacid}-ASGLSTAALGRLSQELHELQTYPRTETGSGTY-NH2), the IC50 in data set [6] is 0.222 nM. The solubility at 18 h in data set [1] (bistrispropane buffer, pH 6.5) was 1 µM (≈ 3.72 µg/mL); in data set [1] (glycylglycine buffer, pH 3.0), ≥ 200 µM; in data set [1] (glycylglycine buffer, pH 4.0), 1 µM (≈ 3.72 µg/mL); in data set [1] (glycylglycine buffer, pH 5.0), 2 µM (≈ 7.44 µg/mL). Moreover, the EC50 amounted to 0.022 nM in data set [2], 0.049 nM in data set [3], 0.052 nM in data set [4] and 0.024 nM in data set [5].
